Measured values published in paper PMC11680393 (Viruses, 2024).

Tests used:
HEp-2 cells = assay: in vitro; assay type: cell-based, Human
in vitro = assay type: cell-based, Human; details: human; HEp-2 cells, 5 or 6 days; read-out: Cytotoxicity CC50
RSV A2 = assay: CPE assay, RSV A2 in HEp-2 cells (resazurin); assay type: cell-based; details: human respiratory syncytial virus, 120 h, RSV A2 0.2 MOI, 5 days

## Cc1cnc(N2CC3(CCOCC3)C2)c(C(=O)Nc2ccc(C(=O)N3CCc4cc(C(=O)Nc5c(C)cccc5F)sc4-c4ccccc43)cc2)c1 [PC786]
HEp-2 cells
  concentration up to which cell viability was not affected: ≥ 14 µM
In vitro
  CC50: > 14000 nM
RSV A2
  IC50: 0.5 nM
